Test system: MkC1qDC
Assay: hemagglutination inhibition, fixed human group […] erythrocytes, two-fold dilutions
Assay type: cell-based, Modiolus kurilensis
Details: Ca2+-dependent lectin activity, 0.1 mg/mL protein, titer decline by one two-fold dilution, also given as 1.16 mg/mL

With `OC[C@H]1O[C@@H](O[C@H]2[C@H](O)[C@@H](O)C(O)O[C@@H]2CO)[C@H](O)[C@@H](O)[C@H]1O` (stereo partly drawn) [D-lactose] the IC50 (also printed as 5.13 mg/mL) was 15 mM.
For `O=C(O)[C@H]1OC(O)[C@H](O)[C@@H](O)[C@H]1O` (stereo partly drawn) [D-galacturonic acid], the IC50 (also printed as 1.46 mg/mL) was 7.5 mM.
In the case of `O=C(O)[C@H]1OC(O)[C@H](O)[C@@H](O)[C@@H]1O` (stereo partly drawn) [D-glucuronic acid], the IC50 (also printed as 1.46 mg/mL) is reported as 7.5 mM.
Work on `OC[C@H]1O[C@H](O[C@@H]2C(O)O[C@H](CO)[C@@H](O)[C@@H]2O)[C@@H](O)[C@@H](O)[C@@H]1O` (stereo partly drawn) [2α- mannobiose] yielded an IC50 (also printed as 10.26 mg/mL) of 30 mM.
Work on `OC[C@H]1OC(O)[C@H](O)[C@@H](O)[C@H]1O` (stereo partly drawn) [D-galactose] yielded an IC50 (also printed as 5.40 mg/mL) of 30 mM.
`OC[C@H]1OC(O)C[C@@H](O)[C@H]1O` (stereo partly drawn) [2-deoxy-D-galactose] gave an IC50 (also printed as 2.46 mg/mL) of 15 mM.
In the case of `CC(=O)N[C@H]1[C@H]([C@H](O)[C@H](O)CO)OC(O)(C(=O)O)C[C@@H]1O` (some centres unmarked) [N-acetylneuraminic (sialic) acid], the IC50 is reported as 3.75 mM.
`OC[C@@H]1OC(O)[C@@H](O)[C@@H](O)[C@@H]1O` (stereo partly drawn) [L-gulose] gave an IC50 (also printed as 1.35 mg/mL) of 7.5 mM.

Reference: publication PMC8706970, “A Novel C1q Domain-Containing Protein Isolated from the Mollusk Modiolus kurilensis Recognizing Glycans Enriched with Acidic Galactans and Mannans” (Marine Drugs, 2021)
